# Calls of active or inactive are those of the source. The calls are words filed in the database; no cut-off is given here.
# Columns and labels:
# [1] = tested on: L5178Y; test: Cytotoxicity against parental mouse L5178Y cells assessed as inhibition of cell growth incubated for 24 hrs by MTT assay; assay type: functional, cell-based
# [2] = tested on: L5178Y; test: Cytotoxicity against multidrug resistant mouse L5178Y cells expressing ABCB1 assessed as inhibition of cell growth incubated for 24 hrs by MTT assay; assay type: functional, cell-based
# [3] = tested on: L5178Y; test: Antiproliferative activity against parental mouse L5178Y cells assessed as inhibition of cell growth incubated for 72 hrs by MTT assay; assay type: functional, cell-based
# [4] = tested on: L5178Y; test: Antiproliferative activity against multidrug resistant mouse L5178Y cells expressing ABCB1 assessed as inhibition of cell growth incubated for 72 hrs by MTT assay; assay type: functional, cell-based
# [5] = tested on: L5178Y; test: Synergistic antiproliferative activity against multidrug resistant mouse L5178Y cells expressing ABCB1 assessed as combination index at 150 uM incubated for 72 hrs in presence of doxorubicin at 17.242 uM by checkerboard assay; assay type: functional
# [6] = tested on: L5178Y; test: Synergistic antiproliferative activity against multidrug resistant mouse L5178Y cells expressing ABCB1 assessed as combination index at 200 uM incubated for 72 hrs in presence of doxorubicin at 17.242 uM by checkerboard assay; assay type: functional
# [7] = tested on: L5178Y; test: Synergistic antiproliferative activity against multidrug resistant mouse L5178Y cells expressing ABCB1 assessed as combination index at 100 uM incubated for 72 hrs in presence of doxorubicin at 17.242 uM by checkerboard assay; assay type: functional
# [8] = tested on: Jurkat; test: Induction of cell cycle arrest in human Jurkat cells assessed as reduction in cyclin D1 gene expression at 50 uM incubated for 24 hrs by qPCR analysis; assay type: functional, cell-based
# [9] = Selectivity index, ratio of IC50 for parental mouse L5178Y cells to IC50 for multidrug resistant mouse L5178Y cells expressing ABCB1; assay type: functional
# [10] = tested on: Jurkat; test: Synergistic induction of cell cycle arrest in human Jurkat cells assessed as increase in p21 gene expression at 50 uM incubated for 24 hrs in presence of doxorubicin at 50 nM by qPCR analysis; assay type: functional, cell-based
# [11] = tested on: Jurkat; test: Synergistic induction of cell cycle arrest in human Jurkat cells assessed as reduction in cyclin D1 gene expression at 50 uM incubated for 24 hrs in presence of doxorubicin at 50 nM by qPCR analysis; assay type: functional, cell-based
# [12] = tested on: Jurkat; test: Induction of cell cycle arrest in human Jurkat cells assessed as increase in p21 gene expression at 50 uM incubated for 24 hrs by qPCR analysis; assay type: functional, cell-based
# [13] = tested on: Jurkat; test: Synergistic induction of cell cycle arrest in human Jurkat cells assessed as increase in p53 gene expression at 50 uM incubated for 24 hrs in presence of doxorubicin at 50 nM by qPCR analysis; assay type: functional, cell-based
# [14] = Cytotoxicity against human skin fibroblast cells assessed as inhibition of cell growth incubated for 72 hrs by MTS assay; assay type: toxicity, cell-based
# [15] = tested on: Jurkat; test: Induction of cell cycle arrest in human Jurkat cells assessed as reduction in cyclin E1 gene expression at 50 uM incubated for 24 hrs by qPCR analysis; assay type: functional, cell-based
# [16] = Cytotoxicity against human HuT 102 cells assessed as inhibition of cell growth incubated for 72 hrs by MTS assay; assay type: functional, cell-based; conditions: HuT-102, 72 h
# [17] = tested on: L5178Y; test: Synergistic antiproliferative activity against multidrug resistant mouse L5178Y cells expressing ABCB1 assessed as combination index at 50 uM incubated for 72 hrs in presence of doxorubicin at 17.242 uM by checkerboard assay; assay type: functional
# [18] = tested on: Jurkat; test: Induction of cell cycle arrest in human Jurkat cells assessed as increase in p21 transcription at 50 uM incubated for 24 hrs by qPCR analysis; assay type: functional, cell-based
# [19] = tested on: Jurkat; test: Induction of cell cycle arrest in human Jurkat cells assessed as increase in p53 transcription at 50 uM incubated for 24 hrs by qPCR analysis; assay type: functional, cell-based
# [20] = tested on: Jurkat; test: Synergistic induction of cell cycle arrest in human Jurkat cells assessed as reduction in cyclin E1 gene expression at 50 uM incubated for 24 hrs in presence of doxorubicin at 50 nM by qPCR analysis; assay type: functional, cell-based
# [21] = tested on: L5178Y; test: Synergistic antiproliferative activity against multidrug resistant mouse L5178Y cells expressing ABCB1 assessed as combination index at 60 uM incubated for 72 hrs in presence of doxorubicin at 17.242 uM by checkerboard assay; assay type: functional
# [22] = Upregulation of ABCC1 gene expression in human SH-SY5Y cells at 20 uM incubated for 96 hrs by RT-PCR analysis; assay type: toxicity, cell-based
# [23] = Upregulation of ABCG2 gene expression in human SH-SY5Y cells at 20 uM incubated for 96 hrs by RT-PCR analysis; assay type: toxicity, cell-based
# [24] = Upregulation of ABCB1 gene expression in human SH-SY5Y cells at 20 uM incubated for 96 hrs by RT-PCR analysis; assay type: toxicity, cell-based
# [25] = tested on: Jurkat; test: Induction of cell cycle arrest in human Jurkat cells assessed as increase in p53 gene expression at 50 uM incubated for 24 hrs by qPCR analysis; assay type: functional, cell-based
SMILES,IC50 [1] [µM],IC50 [2] [µM],IC50 [3] [µM],IC50 [4] [µM],also measured
CCC(Sc1ccc2ccccc2c1)c1nc(N)nc(N2CCN(C)CC2)n1 (stereo not drawn),17.8,30.4,21.2,27.5,–
CCC(SCc1ccccc1)c1nc(N)nc(N2CCN(C)CC2)n1 (stereo not drawn),59.2,> 100,83,67.3,–
CC(Sc1ccccc1)c1nc(N)nc(N2CCN(C)CC2)n1 (stereo not drawn),> 100,> 100,> 100,68.7,–
CN1CCN(c2nc(N)nc(C(C)(C)Sc3ccc4ccccc4c3)n2)CC1,24.8,29,26.4,38.5,–
CCC(Sc1cccc2ccccc12)c1nc(N)nc(N2CCN(C)CC2)n1 (stereo not drawn),22.6,30.3,28.2,31.1,–
CCCCC(Sc1ccc2ccccc2c1)c1nc(N)nc(N2CCN(C)CC2)n1 (stereo not drawn),23.2,45.2,36.4,35.5,–
CN1CCN(c2nc(N)nc(CCCSc3ccccc3)n2)CC1.Cl,30.1,52,34.1,28.6,CI [5]: 0.199
CN1CCN(c2nc(N)nc(C(C)(C)Sc3ccccc3)n2)CC1.Cl,68.8,83.9,65.2,53,CI [6]: 0.41
CN1CCN(c2nc(N)nc(CSc3ccc4ccccc4c3)n2)CC1.Cl,27.1,36.6,19,13.5,CI [7]: 0.415
CCCC(SCc1ccccc1)c1nc(N)nc(N2CCN(C)CC2)n1.Cl (stereo not drawn),36,54.6,24.2,23.5,CI [5]: 0.142
CN1CCN(c2nc(N)nc(C[Se]Cc3ccccc3)n2)CC1,> 100,> 100,45.6,22.7,–
CN1CCN(c2nc(N)nc(CCCSCc3ccccc3)n2)CC1,27.7,61.3,38.8,51.5,–
CCCC([Se]c1ccccc1)c1nc(N)nc(N2CCN(C)CC2)n1.Cl (stereo not drawn),38.6,76.8,14.4,6.03,CI [6]: 0.092; Activity [8]: Active; Ratio IC50 [9]: >2; Activity [10]: Active; Activity [11]: Active; Activity [12]: Active; Activity [13]: Active; IC50 at 72 h [14]: > 100 µM; Activity [15]: Active; IC50 [16]: 54.3 µM
CCCC(Sc1ccccc1)c1nc(N)nc(N2CCN(C)CC2)n1.Cl (stereo not drawn),15,21.2,15.5,16.6,CI [17]: 0.044; Activity [8]: inactive; Activity [18]: Active; Activity [19]: Active; Activity [20]: Active; IC50 at 72 h [14]: > 100 µM; Activity [15]: Active; IC50 [16]: 58.2 µM
CN1CCN(c2nc(N)nc(CCC[Se]c3ccccc3)n2)CC1.Cl,33.4,42.2,13.3,11.6,Activity [8]: Active; CI [7]: 0.309; Activity [11]: Active; Activity [20]: Active; IC50 at 72 h [14]: > 100 µM; Activity [15]: Active; IC50 [16]: 62 µM
CN1CCN(c2nc(N)nc(CSCc3ccccc3)n2)CC1,> 100,> 100,57.2,37.2,–

SMILES,IC50 [1] [µM],IC50 [2] [µM],IC50 [3] [µM],IC50 [4] [µM],also measured
CN1CCN(c2nc(N)nc(CCC[Se]Cc3ccccc3)n2)CC1,32,57.4,30.8,38.6,–
CN1CCN(c2nc(N)nc(CCSc3ccccc3)n2)CC1,60.8,67,54.5,33.8,–
CCC(Sc1ccccc1)c1nc(N)nc(N2CCN(C)CC2)n1.Cl (stereo not drawn),54.4,81.5,58,47,CI [6]: 0.127
CC(Sc1ccc2ccccc2c1)c1nc(N)nc(N2CCN(C)CC2)n1 (stereo not drawn),18.4,28.1,21.3,18.6,–
CN1CCN(c2nc(N)nc(CCSCc3ccccc3)n2)CC1.Cl,82.4,70.9,38.6,32.2,CI [6]: 0.323
CN1CCN(c2nc(N)nc(CCCSc3ccc4ccccc4c3)n2)CC1.Cl,11.4,16.7,6.71,5.35,Activity [8]: Active; Activity [10]: Active; CI [21]: 0.18; Activity [22]: Toxic; Activity [18]: Active; Activity [11]: Active; Activity [13]: Active; Activity [19]: Active; Activity [20]: Active; Activity [23]: Toxic; IC50 at 72 h [14]: 79.1 µM; Activity [15]: Active; Activity [24]: Toxic; IC50 [16]: 19.7 µM
CCCCC(Sc1ccccc1)c1nc(N)nc(N2CCN(C)CC2)n1.Cl (stereo not drawn),15.5,21.6,20.6,17.4,CI [17]: 0.148
CC(SCc1ccccc1)c1nc(N)nc(N2CCN(C)CC2)n1 (stereo not drawn),91.8,> 100,> 100,92.4,–
CCC([Se]Cc1ccccc1)c1nc(N)nc(N2CCN(C)CC2)n1 (stereo not drawn),8.66,25.3,10.7,11.8,Activity [8]: Active; Activity [10]: Active; Activity [12]: Active; Activity [13]: Active; Activity [25]: Active; IC50 at 72 h [14]: > 100 µM; Activity [15]: Active; IC50 [16]: 44.3 µM
COc1cccc2c1C(=O)c1c(O)c3c(c(O)c1C2=O)C[C@@](O)(C(=O)CO)C[C@@H]3O[C@H]1C[C@H](N)[C@H](O)[C@H](C)O1 [DOXORUBICIN],0.7,2.14,0.28,1.75,–
CCCC(Sc1ccc2ccccc2c1)c1nc(N)nc(N2CCN(C)CC2)n1 (stereo not drawn),23.9,53.2,43.3,42.7,–
CC(Sc1cccc2ccccc12)c1nc(N)nc(N2CCN(C)CC2)n1 (stereo not drawn),15.5,32.4,23.3,32.8,–
CCCCC(SCc1ccccc1)c1nc(N)nc(N2CCN(C)CC2)n1 (stereo not drawn),19.7,30.6,25.8,28.1,–
CN1CCN(c2nc(N)nc(CSc3ccccc3)n2)CC1,> 100,> 100,> 100,79.9,–
CN1CCN(c2nc(N)nc(C(C)(C)Sc3cccc4ccccc34)n2)CC1,14.8,23.4,19.9,24.7,–
